Active and inactive are the calls of the source. The rule behind the calls is not given here.
Assays:
[1] = target: Mitogen-activated protein kinase 10 (Homo sapiens, UniProt P53779); experiment: Inhibition of JNK3 (unknown origin) using biotinylated ATF2 by HTRF method
[2] = target: Mitogen-activated protein kinase 9 (Homo sapiens, UniProt P45984); experiment: Inhibition of JNK2 (unknown origin) using biotinylated ATF2 by HTRF method
[3] = Half life in Sprague-Dawley rat at 1 mg/kg, iv and 2 mg/kg, po by LC-MS/MS analysis; format: ADME, organism-based; details: in vivo
Rattus norvegicus [4] = experiment: (§1) AUC in Sprague-Dawley rat at 2 mg/kg, po by LC-MS/MS analysis; format: ADME, organism-based, Plasma; parameters: dose 2 mg/kg, route oral; details: in vivo
Rattus norvegicus [5] = experiment: (§2) Oral bioavailability in Sprague-Dawley rat at 2 mg/kg by LC-MS/MS analysis; format: ADME, organism-based; details: in vivo
[6] = Plasma concentration in C57Bl6 mouse at 10 mg/kg after 2 hrs by LC-MS/MS analysis; format: ADME, organism-based; parameters: dose 10 mg/kg
[7] = Drug uptake in C57Bl6 mouse brain at 10 mg/kg after 2 hrs by LC-MS/MS analysis; format: ADME, organism-based; parameters: dose 10 mg/kg; details: read-out: Drug uptake
Brain = experiment: Drug penetration in C57Bl6 mouse brain at 10 mg/kg by LC-MS/MS analysis relative to control; format: ADME, organism-based; parameters: dose 10 mg/kg; details: in vivo
[8] = target: T1, c-Jun N-terminal kinase, JNK (Homo sapiens, UniProt P45983+P53779+P45984); experiment: Inhibition of JNK in human U87MG cells overexpressing EGFR V3 mutant assessed as inhibition of c-jun phosphorylation after 6 hrs by ELISA; format: cell-based; details: u-87mg atcc
[9] = target: T1, c-Jun N-terminal kinase, JNK; details: U-87MG ATCC
Description: Inhibition of JNK in human U87MG cells overexpressing EGFR V3 mutant assessed as inhibition of c-jun phosphorylation at 0.1 to 3 uM after 6 hrs by Western blotting analysis

[10] = Clearance in Sprague-Dawley rat at 1 mg/kg, iv and 2 mg/kg, po by LC-MS/MS analysis; format: ADME, organism-based; details: in vivo
[11] = as §1; format: ADME, organism-based, Plasma; parameters: dose 2 mg/kg, route oral; details: Sprague-Dawley, plasma
[12] = as §2; format: ADME, organism-based; details: Sprague-Dawley, in vivo
[13] = Inhibition of JNK in rat INS cells assessed as inhibition of c-jun phosphorylation; format: cell-based

Sequence of Mitogen-activated protein kinase 9 (P45984 whole entry): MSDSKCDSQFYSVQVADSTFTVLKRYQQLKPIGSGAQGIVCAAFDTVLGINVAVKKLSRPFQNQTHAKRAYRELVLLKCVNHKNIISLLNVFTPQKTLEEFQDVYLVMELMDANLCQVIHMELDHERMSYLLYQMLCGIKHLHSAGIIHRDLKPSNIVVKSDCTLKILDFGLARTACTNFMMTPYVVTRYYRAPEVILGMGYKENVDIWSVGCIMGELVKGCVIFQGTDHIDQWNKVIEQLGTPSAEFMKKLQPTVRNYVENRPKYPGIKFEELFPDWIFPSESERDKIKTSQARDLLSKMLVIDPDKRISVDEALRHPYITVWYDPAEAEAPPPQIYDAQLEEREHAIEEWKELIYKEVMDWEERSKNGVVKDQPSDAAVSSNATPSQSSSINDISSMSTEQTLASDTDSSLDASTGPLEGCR
Sequence of Mitogen-activated protein kinase 10 (P53779 whole entry): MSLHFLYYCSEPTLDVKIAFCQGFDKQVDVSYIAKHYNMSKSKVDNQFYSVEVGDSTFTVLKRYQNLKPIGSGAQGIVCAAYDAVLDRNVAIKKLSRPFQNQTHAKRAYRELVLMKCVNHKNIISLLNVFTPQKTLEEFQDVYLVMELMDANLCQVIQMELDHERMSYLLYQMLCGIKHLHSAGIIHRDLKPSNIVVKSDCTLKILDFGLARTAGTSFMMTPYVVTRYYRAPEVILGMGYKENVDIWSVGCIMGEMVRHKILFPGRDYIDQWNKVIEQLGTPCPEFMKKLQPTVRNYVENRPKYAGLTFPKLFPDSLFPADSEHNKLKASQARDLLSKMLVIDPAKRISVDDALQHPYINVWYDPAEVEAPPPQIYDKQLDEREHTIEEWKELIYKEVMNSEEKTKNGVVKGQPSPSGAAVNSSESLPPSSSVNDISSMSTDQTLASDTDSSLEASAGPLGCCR

SMILES | IC50 [1] [µM] | IC50 [2] [µM] | other results
COc1cc(N2CCOCC2)ccc1Nc1cc(Nc2ccccc2C(N)=O)ccn1 | 0.374 | – | –
NC(=O)c1ccccc1Nc1nc(Nc2ccc(N3CCOCC3)c(F)c2)ncc1Cl | 0.00025 | 0.00051 | –
CNC(=O)c1ccccc1Nc1cc(Nc2ccc(N3CCOCC3)cc2OC)ncc1Cl | 0.083 | 0.05 | –
CN(C)CCNC(=O)c1ccccc1Nc1ccnc(Nc2ccc(N3CCOCC3)cc2)c1 | > 20 | – | –
CNC(=O)c1ccccc1Nc1ccnc(Nc2ccc(N3CCOCC3)cc2)c1 | 3.1 | – | –
Cc1cc(Nc2ncc(Cl)c(Nc3ccccc3C(N)=O)n2)ccc1N1CCOCC1 | 0.00031 | 0.00069 | –
NC(=O)c1ccccc1Nc1nc(Nc2ccc(Cl)cc2)ncc1Cl | 0.0025 | 0.034 | –
N#Cc1ccc(Nc2ncc(Cl)c(Nc3ccccc3C(N)=O)n2)cc1 | 0.00077 | 0.00071 | –
CNC(=O)c1ccccc1Nc1cc(Nc2ccc(N3CCOCC3)cc2OC)ncc1F | 0.32 | 0.59 | –
CNC(=O)c1ccccc1Nc1cc(Nc2ccc(N3CCOCC3)cc2OC)ncc1Br | 0.068 | 0.082 | –
COc1cc(N2CCOCC2)ccc1Nc1ncc(Cl)c(Nc2ccccc2C(N)=O)n1 | 0.00078 | 0.003 | IC50 [13]: 0.003 µM; half-life [3]: 1 h; AUC (Rattus norvegicus [4]): 0.4 µM·h; F (Rattus norvegicus [5]): 30%; concentration at 2 h [6]: 5500 nM; concentration at 2 h [7]: 930 nM; Drug uptake (Brain): 17%
CNC(=O)c1ccccc1Nc1cc(Nc2ccc(N3CCOCC3)cc2OC)ncc1C#N | 0.51 | > 3 | –
CNC(=O)c1ccccc1Nc1cc(Nc2ccc(N3CCOCC3)cc2OC)ncc1C(F)(F)F [VS-4718] | 0.16 | 0.12 | IC50 [13]: > 3 µM
CNC(=O)c1ccccc1Nc1nc(Nc2ccc(N3CCOCC3)cc2OC)ncc1Cl | – | – | IC50 [13]: 0.485 µM; inhibition [9]: Active
NC(=O)c1ccccc1Nc1nc(Nc2ccc(N3CCCC3=O)cc2)ncc1Cl | 0.00016 | 0.00024 | half-life [3]: 0.6 h; clearance [10]: 10 mL/min/kg; AUC [11]: 0.2 µM·h; bioavailability [12]: 3%; concentration at 2 h [6]: 680 nM; concentration at 2 h [7]: 15 nM; Drug uptake (Brain): 2%

Further lines, with some results ahead:

IC50 [1] [µM] | IC50 [2] [µM] | SMILES | other results
1 | – | COc1cc(N2CCOCC2)ccc1Nc1cc(Nc2ccccc2C(=O)N(C)C)c(C(F)(F)F)cn1 | –
0.16 | 0.329 | NC(=O)c1ccccc1Nc1ccnc(Nc2ccc(N3CCOCC3)cc2)c1 | –
0.132 | – | COc1cc(Nc2cc(Nc3ccccc3C(N)=O)ccn2)ccc1N1CCOCC1 | –
1.8 | – | O=C1NCc2cccc(Nc3ccnc(Nc4ccc(N5CCOCC5)cc4)c3)c21 | –
12 | – | O=C(Nc1ccccc1)c1ccccc1Nc1ccnc(Nc2ccc(N3CCOCC3)cc2)c1 | –
0.00028 | 0.00068 | COc1cc(Nc2ncc(Cl)c(Nc3ccccc3C(N)=O)n2)ccc1N1CCOCC1 | half-life [3]: 1 h; AUC (Rattus norvegicus [4]): 1.3 µM·h; F (Rattus norvegicus [5]): 17%; concentration at 2 h [6]: 2600 nM; concentration at 2 h [7]: 800 nM; Drug uptake (Brain): 31%; EC50 [8]: 0.023 µM; inhibition [9]: Active
0.00028 | 0.001 | NC(=O)c1ccccc1Nc1nc(Nc2ccc(N3CCOCC3)cc2)ncc1Cl | half-life [3]: 1 h; clearance [10]: 59 mL/min/kg; AUC [11]: 0.1 µM·h; bioavailability [12]: 8%; concentration at 2 h [6]: 840 nM; concentration at 2 h [7]: 830 nM; Drug uptake (Brain): 100%
> 20 | – | O=C(NCc1ccccc1)c1ccccc1Nc1ccnc(Nc2ccc(N3CCOCC3)cc2)c1 | –
0.0003 | 0.0006 | NC(=O)c1ccccc1Nc1nc(Nc2ccc(N3CCOCC3)cc2F)ncc1Cl | –
0.061 | 0.09 | CNC(=O)c1ccccc1Nc1cc(Nc2ccc(N3CCOCC3)cc2)ncc1C(F)(F)F | –
0.00042 | 0.001 | COc1ccc(Nc2ncc(Cl)c(Nc3ccccc3C(N)=O)n2)cc1 | –
0.0012 | 0.0025 | NC(=O)c1ccccc1Nc1nc(Nc2ccc(F)cc2)ncc1Cl | –

Source: ChEMBL document CHEMBL3217652, “Synthesis and SAR of 2,4-diaminopyrimidines as potent c-jun N-terminal kinase inhibitors” (Medchemcomm, 2012)
